Measurements reported in US20080261936A1, “METHODS OF REDUCING THE BODY WEIGHT OF A SUBJECT BY ADMINISTERING A FATTY ACID ESTER OF AN ESTROGEN OR ESTROGEN DERIVATIVE IN AN OIL AND COMPOSITIONS CONTAINING THE SAME” (Manhattan Pharmaceuticals, Inc., priority 2006, published 2008).
Values joined by “and” are separate entries in the source; they are usually repeats but may differ in a detail not shown here. Equal values may be shown once.

Assay: Compatibility/stability of oleoyl-estrone in oil systems (appearance/color, potency, related substances)
Type: physicochemical
Procedure: The compatibility of oleoyl-estrone in various oil systems was also assessed. The respective stability of oleoyl-estrone in various oils was assessed following storage at (A) 25° C./60% and relative humidity (RH), (B) 40° C./75% RH, (C) 50° C. and (D) 60° C. in canola oil, safflower oil, Captex and a 2:1 Captex: Labrafil mixture. The stability test methods include appearance/color, potency, and related substances (e.g. impurities or degradant in the oleoyl-estrone and oil mixture).

[1] = in 2:1 CAPTEX:LABRAFIL, One Week 25° C./60% RH
[2] = in 2:1 CAPTEX:LABRAFIL, One Week 40° C./75% RH
[3] = in 2:1 CAPTEX:LABRAFIL, One Week 50° C.
[4] = in 2:1 CAPTEX:LABRAFIL, One Week 60° C.
[5] = in 2:1 CAPTEX:LABRAFIL, Time Zero
[6] = in 2:1 CAPTEX:LABRAFIL, Two Weeks 25° C./60% RH
[7] = in 2:1 CAPTEX:LABRAFIL, Two Weeks 40° C./75% RH
[8] = in CANOLA, One Week 25° C./60% RH
[9] = in CANOLA, One Week 40° C./75% RH
[10] = in CANOLA, Three Weeks 25° C./60% RH
[11] = in CANOLA, Three Weeks 40° C./75% RH
[12] = in CANOLA, Two Weeks 25° C./60% RH
[13] = in CANOLA, Two Weeks 40° C./75% RH
[14] = in CAPTEX, One Week 25° C./60% RH
[15] = in CAPTEX, One Week 40° C./75% RH
[16] = in CAPTEX, Three Weeks 25° C./60% RH
[17] = in CAPTEX, Three Weeks 40° C./75% RH
[18] = in CAPTEX, Two Weeks 25° C./60% RH
[19] = in CAPTEX, Two Weeks 40° C./75% RH

CCCCCCCC/C=C\CCCCCCCC(=O)Oc1ccc2c(c1)CC[C@@H]1[C@@H]2CC[C@]2(C)C(=O)CC[C@@H]12 [oleoyl-estrone, [3(Z)]-3-[(1-oxo-9-octadecenyl)oxy]-estra-1,3,5(10)-trien-17-one]
Mean Purity Assay [1]: 101.9% | Purity Assay [1]: 100.4% and 103.3% | Mean Purity Assay [2]: 104.4% | Purity Assay [2]: 102.2% and 106.6% | Mean Purity Assay [3]: 106.8% | Purity Assay [3]: 106.6% and 107.0% | Mean Purity Assay [4]: 98.2% | Purity Assay [4]: 98.4% and 97.9% | Mean Purity Assay (in 2:1 CAPTEX:LABRAFIL, Three Weeks 25° C./60% RH): 102.1% | Mean Purity Assay (in 2:1 CAPTEX:LABRAFIL, Three Weeks 40° C./75% RH): 99.7% | Mean Purity Assay (in 2:1 CAPTEX:LABRAFIL, Three Weeks 50° C.): 103.8% | Mean Purity Assay (in 2:1 CAPTEX:LABRAFIL, Three Weeks 60° C.): 102.1% | Mean Purity Assay [5]: 104.8% | Purity Assay [5]: 105.1% and 104.9% and 103.6% and 105.2% | Mean Purity Assay [6]: 102.9% | Purity Assay [6]: 101.3% and 104.4% | Mean Purity Assay [7]: 104.5% | Purity Assay [7]: 107.3% and 101.7% | Mean Purity Assay (in 2:1 CAPTEX:LABRAFIL, Two Weeks 50° C.): 104.0% | Mean Purity Assay (in 2:1 CAPTEX:LABRAFIL, Two Weeks 60° C.): 106.2% | Mean Purity Assay [8]: 96.5% | Purity Assay [8]: 96.3% and 96.7% | Mean Purity Assay [9]: 95.8% | Purity Assay [9]: 95.2% and 96.4% | Mean Purity Assay (in CANOLA, One Week 50° C.): 99.8% | Purity Assay (in CANOLA, One Week 50° C.): 96.3% and 103.3% | Mean Purity Assay (in CANOLA, One Week 60° C.): 98.2% | Purity Assay (in CANOLA, One Week 60° C.): 97.8% and 98.5% | Mean Purity Assay [10]: 96.5% | Purity Assay [10]: 95.3% and 97.7% | Mean Purity Assay [11]: 98.4% | Purity Assay [11]: 94.6% and 102.2% | Mean Purity Assay (in CANOLA, Three Weeks 50° C.): 99.4% | Purity Assay (in CANOLA, Three Weeks 50° C.): 100.2% and 98.5% | Mean Purity Assay (in CANOLA, Three Weeks 60° C.): 99.8% | Purity Assay (in CANOLA, Three Weeks 60° C.): 100.4% and 99.1% | Mean Purity Assay (in CANOLA, Time Zero): 98.1% | Purity Assay (in CANOLA, Time Zero): 97.5% and 98.0% and 97.8% and 98.9% | Mean Purity Assay [12]: 96.4% | Purity Assay [12]: 92.5% and 100.3% | Mean Purity Assay [13]: 99.0% | Purity Assay [13]: 98.2% and 99.8% | Mean Purity Assay (in CANOLA, Two Weeks 50° C.): 98.2% | Purity Assay (in CANOLA, Two Weeks 50° C.): 100.2% and 96.2% | Mean Purity Assay (in CANOLA, Two Weeks 60° C.): 97.3% | Purity Assay (in CANOLA, Two Weeks 60° C.): 96.7% and 97.9% | Mean Purity Assay [14]: 105.2% | Purity Assay [14]: 102.0% and 108.3% | Mean Purity Assay [15]: 103.6% | Purity Assay [15]: 105.2% and 101.9% | Mean Purity Assay (in CAPTEX, One Week 50° C.): 101.2% | Purity Assay (in CAPTEX, One Week 50° C.): 99.5% and 102.9% | Mean Purity Assay (in CAPTEX, One Week 60° C.): 101.9% | Purity Assay (in CAPTEX, One Week 60° C.): 101.5% and 102.3% | Mean Purity Assay [16]: 99.5% | Purity Assay [16]: 100.4% and 98.5% | Mean Purity Assay [17]: 99.1% | Purity Assay [17]: 99.4% and 98.8% | Mean Purity Assay (in CAPTEX, Three Weeks 50° C.): 106.5% | Purity Assay (in CAPTEX, Three Weeks 50° C.): 107.1% and 105.9% | Mean Purity Assay (in CAPTEX, Three Weeks 60° C.): 103.0% | Purity Assay (in CAPTEX, Three Weeks 60° C.): 100.7% and 105.3% | Mean Purity Assay (in CAPTEX, Time Zero): 105.4% | Purity Assay (in CAPTEX, Time Zero): 105.6% and 105.3% and 104.1% and 106.4% | Mean Purity Assay [18]: 102.8% | Purity Assay [18]: 104.8% and 100.8% | Mean Purity Assay [19]: 96.4% | Purity Assay [19]: 98.5% and 94.3% | Mean Purity Assay (in CAPTEX, Two Weeks 50° C.): 97.9% | Purity Assay (in CAPTEX, Two Weeks 50° C.): 96.5% and 99.3% | Mean Purity Assay (in CAPTEX, Two Weeks 60° C.): 102.4% | Purity Assay (in CAPTEX, Two Weeks 60° C.): 105.6% and 99.1% | Mean Purity Assay (in SAFFLOWER, One Week 25° C./60% RH): 99.1%
